Consider 19 molecules from US11802258B2, “Perfume precursor” (TAKASAGO INTERNATIONAL CORPORATION, priority 2017, dated 2023).

Test [1] relates to lipase preparation AY “Amano” 30SD. Briefly: Lipase-induced scent emission test, lipase preparation AY “Amano” 30SD. The test is classed as biochemical. Particulars: GC/MS head space peak area of scent-emitting compound minus water control; 10 mg fragrance precursor + 1 g aqueous 1% lipase preparation solution. The procedure:
(§1) 10 mg of a fragrance precursor and 1 g of an aqueous 1% lipase preparation solution were put in a vial bottle and mixed and after hermetically sealing the bottle, the mixture was subjected to GC/MS analysis of the head space component to obtain a peak area of the scent-emitting compound. As a control, water was used in place of the aqueous 1% lipase preparation solution, and a peak area of the control was obtained by the same method. The scent emission amount was determined from the difference between the obtained peak area of the scent-emitting compound and the peak area of the control.
(§2) (GC/MS Measurement Conditions)
(§3) Measurement instrument: 7890GC/5975M (manufactured by Agilent Technologies) • Column: BC-WAX50 m×0.25 mm I.D. • Temperature rise: 70° C. to 220° C., 4° C./min • Split ratio: 60:1

The subject of test [2] is Staphylococcus aureus NBRC12732. Description: Scent emission test by microorganism, Staphylococcus aureus. The test is classed as cell-based. The following applies: GC/MS head space peak area minus control culture; 10 mg fragrance precursor in 3 mL culture solution, 30° C., 20 hours. The method, then: (§4) Culture of Staphylococcus aureus strain NBRC12732, Corynebacterium xerosis strain JCM1324, Pseudomonas aeruginosa strain NBRC13275, and Moraxella osloensis strain ATCC19976:
(§5) After inoculating each of bacteria in Muller-Hinton liquid medium, shaking culture was performed at 30° C. for 20 hours, and 3 mL of the resulting preculture solution was transferred to a vial bottle. 10 mg of each of the fragrance precursors was mixed therewith and after hermetical sealing, shaking culture was further performed at 30° C. for 20 hours.
(§6) A peak area of the scent-emitting compound was obtained by performing GC/MS analysis of the head space component included in the vial bottle containing 3 mL of a microorganism culture solution in which 10 mg of the fragrance precursor was mixed. A microorganism culture solution having not mixed therein the fragrance precursor was used as the control, and a peak area of the control was obtained by the same method. The scent emission amount was determined from the difference between the obtained peak area of the scent-emitting compound and the peak area of the control.
(§7) Measurement instrument: 7890GC/5975MSD (manufactured by Agilent Technologies) • Column: BC-WAX 50 m×0.25 mm I.D. • Temperature rise: 70° C. to 220° C., 4° C./min • Split ratio: splitless

Test [3] relates to Pseudomonas aeruginosa NBRC13275. Briefly: Scent emission test by microorganism, Pseudomonas aeruginosa. It is filed as cell-based. Particulars: GC/MS head space peak area minus control culture; 10 mg fragrance precursor in 3 mL culture solution, 30° C., 20 hours. The procedure: as §4, §5, §6, §7
The test system of test [4] is Propionibacterium acnes JCM6473. Briefly: Scent emission test by microorganism, Propionibacterium acnes. The test is classed as cell-based. The following applies: GC/MS head space peak area minus control culture; 10 mg fragrance precursor in 3 mL culture solution, static culture 28° C., 3 days. The method, then:
Culture of Propionibacterium acnes Strain JCM6473:
After inoculating the bacterium in GAM bouillon liquid medium containing Hemin 0.5 ppm and Menadione 0.5 ppm, static culture was performed at 28° C. for 3 days under anaerobic conditions, and 3 mL of the resulting preculture solution was transferred to a vial bottle. 10 mg of each of the fragrance precursors was mixed therewith and after hermetical sealing, static culture was further performed at 28° C. for 3 days.
as §6, §7

The test system of test [5] is Malassezia furfur NBRC0656. Briefly: Scent emission test by microorganism, Malassezia furfur. It is filed as cell-based. The following applies: GC/MS head space peak area minus control culture; 10 mg fragrance precursor in 3 mL culture solution, static culture 28° C., 3 days. The procedure:
Culture of Malassezia furfur Strain NBRC0656:
After inoculating the bacterium in Sabouraud liquid medium containing 0.1% Tween 80, static culture was performed at 28° C. for 3 days under anaerobic conditions, and 3 mL of the resulting preculture solution was transferred to a vial bottle. 10 mg of the fragrance precursor was mixed therewith and after hermetical sealing, static culture was further performed at 28° C. for 3 days.
as §6, §7

Test [6] relates to Corynebacterium xerosis JCM1324. Briefly: Scent emission test by microorganism, Corynebacterium xerosis. The test is classed as cell-based. Particulars: GC/MS head space peak area minus control culture; 10 mg fragrance precursor in 3 mL culture solution, 30° C., 20 hours. The procedure:
as §4, §5, §6, §7

Test [7] has as its target T1, lipase preparation Lipex 100 L (Thermomyces lanuginosus, UniProt O59952, N255R/T253R).
T1 construct: purchased Novozymes Lipex 100 L
Description: Lipase-induced scent emission test, lipase preparation Lipex 100 L. The following applies: for Scent Emission Amount: GC/MS head space peak area of scent-emitting compound minus water control, 10 mg fragrance precursor + 1 g aqueous 1% lipase preparation solution; for Scent-Emitting Compound: compound released, GC/MS of head space. It is filed as biochemical. The method, then: as §1, §2, §3

The test system of test [8] is Moraxella osloensis ATCC19976. Description: Scent emission test by microorganism, Moraxella osloensis. The following applies: GC/MS head space peak area minus control culture; 10 mg fragrance precursor in 3 mL culture solution, 30° C., 20 hours. The test is classed as cell-based. The method, then:
as §4, §5, §6, §7

T1 sequence (O59952 23-291 T253R/N255R): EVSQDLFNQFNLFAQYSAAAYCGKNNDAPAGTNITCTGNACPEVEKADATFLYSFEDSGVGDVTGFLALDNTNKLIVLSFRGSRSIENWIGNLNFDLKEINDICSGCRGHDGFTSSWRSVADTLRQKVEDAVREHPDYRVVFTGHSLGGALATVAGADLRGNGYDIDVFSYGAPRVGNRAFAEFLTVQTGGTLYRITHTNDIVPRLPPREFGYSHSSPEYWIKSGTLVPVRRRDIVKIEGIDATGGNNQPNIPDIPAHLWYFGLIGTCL

Turning to `CC(C)=CCC/C(C)=C/COC(=O)c1ccccc1` [geranyl benzoate], the “Scent Emission Amount” value in test [1] is recorded as 78,461,812; in test [2] it was 839,961,157; in test [3], 117,161,311; in test [4], 105,061,217; in test [5], 121,633,184.

With `O=C(C=Cc1ccccc1)OCC=Cc1ccccc1` [cinnamyl cinnamate], in test [1], the “Scent Emission Amount” value is 24,711,289.

With `O=C(Cc1ccccc1)OCCc1ccccc1` [phenylethyl phenylacetate], in test [1], the “Scent Emission Amount” value is reported as 50,855,859.

Turning to `CC(C)=CCC/C(C)=C/COC(=O)Cc1ccccc1` [geranyl phenylacetate], the entries for the “Scent Emission Amount” value in test [1] and in test [6] were 54,842,763 and 39,033,900, respectively.

Take `C=C(C)CCC[C@H](C)CCOC(=O)Cc1ccccc1` [rosinyl phenylacetate]: the “Scent Emission Amount” value in test [1] is on record as 56,492,946.

As for `COc1ccc(C(=O)OCC[C@@H](C)CC/C=C(\C)CCC=C(C)C)cc1` [Example 8, (S,E)-3,7,11-trimethyl-6,10-dodecadienyl Anisate], the “Scent Emission Amount” value in test [1] is given as 23,338,647.

For `CC(C)=CCC/C(C)=C/CC[C@H](C)CCOC(=O)c1ccccc1` [Example 7, (S,E)-3,7,11-trimethyl-6,10-dodecadienyl Benzoate], the “Scent Emission Amount” value in test [1] is 88,986,381.

`CC(C)=CCC[C@H](C)CCOC(=O)c1ccccc1` [Example 1, 3,7-dimethyl-6-octenyl benzoate]: in test [7], the “Scent Emission Amount” value is listed as 28,098,876 and the “Scent-Emitting Compound” value was “citronellol”.

For the molecule `CC(C)=CCCC(C)CCOC(=O)Cc1ccccc1` (stereo not drawn) [citronellyl phenylacetate], the “Scent Emission Amount” value in test [3] is given as 150,385,642; in test [8], 500,940,481; in test [4], 292,401,763; in test [5], 369,118,269.

On to `COc1cc(C=O)ccc1OC(=O)c1ccccc1` [Example 13, 4-formyl-2-methoxyphenyl Benzoate], for which, in test [7], the “Scent Emission Amount” value was 47,188,750 and the “Scent-Emitting Compound” value is given as “vanillin”.

In the case of `CC/C=C\CCOC(=O)c1ccccc1O` [(Z)-3-hexenyl salicylate], the “Scent Emission Amount” value in test [1] was 16,933,990; in test [2], 14,126,965.

Turning to `CC/C=C\CCOC(=O)c1ccccc1` [Example 11, (Z)-3-hexenyl Benzoate], the “Scent Emission Amount” value in test [1] is given as 49,663,459.

As for `C=CCc1ccc(OC(=O)c2ccccc2)c(OC)c1` [Example 12, 4-allyl-2-methoxyphenyl benzoate], in test [7], the “Scent Emission Amount” value is on record as 164,744,420 and the “Scent-Emitting Compound” value was “eugenol”.

Take `O=C(C=Cc1ccccc1)OCCc1ccccc1` [phenylethyl cinnamate]: the “Scent Emission Amount” value is 22,892,002 in test [1]; 144,750,281 in test [2]; 247,508,719 in test [3]; 112,497,882 in test [4]; 351,450,490 in test [5].

With `CC(C)=CCC/C(C)=C/CC[C@H](C)CCOC(=O)/C=C/c1ccccc1` [Example 10, (S,E)-3,7,11-trimethyl-6,10-dodecadienyl Cinnamate], in test [7], the “Scent Emission Amount” value is given as 19,967,420 and the “Scent-Emitting Compound” value was “dihydrofarnesol”.

On to `O=C(OCCc1ccccc1)c1ccccc1` [phenylethyl benzoate], for which the “Scent Emission Amount” value in test [1] was 96,460,830.

`CC(C)[C@@H]1CC[C@@H](C)C[C@H]1OC(=O)c1ccccc1` [Example 6, (1R,2S,5R)-isopropyl-5-methylcyclohexyl benzoate]: the “Scent Emission Amount” value in test [1] is 82,023,336.

`CCCC(CC[C@@H]1[C@@H](C)CCCC1(C)C)OC(=O)c1ccc(OC)cc1` (stereo partly drawn) [Example 3, 1-((R,6S)-2,2,6-trimethylcyclohexyl)-3-hexanyl Anisate]: the results for the “Scent Emission Amount” value in test [1] and in test [7] were 40,373,157 and 40,430,750, respectively.

On to `C=CCCCCCCCCOC(=O)c1ccccc1` [Example 14, 9-decenyl Benzoate], for which the “Scent Emission Amount” value was 86,274,718 in test [8], 133,440,692 in test [4] and 304,030,021 in test [5].
